Here are results for two compounds from US20030186269A1, “Ssa-56 kda polypeptide and its fragments and polynucleotides encoding said polypeptides and therapeutic uses” (priority 2000, published 2003).

Series [1] deals with chemokines. Nature of the series: Profile of secreted cytokines and chemokines in PBMC cultures. In kind it is cell-based, human. Conditions: PBMC cultures of HIV patients. From the text: (§1) Specifically, MB inhibits by 70 to 100% the level of HIV viral protein p24 in the culture supernatants. This effect correlates with the level of expression of viral messenger RNAs (nonspliced and single-spliced).

The test system of series [2] is human immunodeficiency virus (HIV). The following applies: macrophages and dendritic cells, PBMCs of infected patients; cited from earlier work.
For series [3] the following is noted: cited from earlier work.
The test system of series [4] is mRNA encoding the Ro/SSA-like protein. Kind of series: Semiquantitative RT-PCR of the expression of the mRNA encoding Ro/SSA-like in PBMCs. It counts as cell-based, human. The method, then:
PBMCs from patients (P) infected with HIV or from control healthy donors (C) are isolated, depleted of CD8+ (Dynabeads, Dynal) and stimulated with PHA (5 μg/ml) for 3 days. The cells are then treated or not treated with murabutide (10 μ/ml) in the presence of interleukin 2 (IL2) (10U/ml) in RPMI medium supplemented with 10% fetal calf serum (FCS) for 6 hours or 24 hours in a proportion of a minimum of 5×10^6 cells per condition.
After treatment, the RNA in the cells is extracted (RNAplus, Quantum-bioprobe), then treated with DNase (Boerhinger) and reverse transcribed (RT) using an oligo(dT) in the presence of the Mu-MLV reverse transcriptase (Superscript II, Gibco).
The quality of the RTs is verified by PCR (25 cycles) with primers specific for GAPDH (5′GCCATCAATGACCCCTTCATTGAC 3′) (SEQ ID No. 18) and (5′TGACGAACATGGGGGCATCAGCAG 3′) (SEQ ID No. 19) using 20, 100 and 500 ng of total RNA. The inventors then carried out RT-PCRs (35 cycles) with primers specific for the mRNA encoding Ro/SSA-like, (5′ GAAAGAGAGGTCGCAGAGGCCTGT 3′) (SEQ ID No. 20) and (5′ TGATAAGGCTGAGGAAGGGAAATG 3′) (SEQ ID No. 21). The number of amplification cycles was determined beforehand (35 cycles). The amplified fragments are visualized on agarose gel (1%) in the presence of ethidium bromide, and then quantified using the Imager master program (Pharmacia).
For each dilution, the given value for the gene studied is related to that of the GAPDH (ratio=R). For each patient and each time (6 h or 24 h), the R of the cells treated with murabutide is related to that of the untreated cells. The results are then expressed as % increase or inhibition of expression of the gene relative to the untreated cells. It should be noted that, for each dilution tested, the R can vary slightly; the mean for the Rs was produced by taking care to always be in the linear phase of amplification.

The conditions of series [5]: HIV+ patients, phase I and phase IIa; cited from earlier work.
For series [6] the following is noted: healthy volunteers and patients suffering from cancer; cited from earlier work.
The test system of series [7] is PBMCs. Nature of the series: Toxicity (number of live cells) in the same PBMC cultures. It counts as cell-based, human. Conditions: live cells unchanged at start, appear to increase at end of culturing.
Text: as §1

The target in series [8] is recombinant SSA-60 protein (UniProt P10155). Kind of series: ELISA on coated recombinant protein, control at 1/100.
UniProt P10155, sequence (P10155 whole entry): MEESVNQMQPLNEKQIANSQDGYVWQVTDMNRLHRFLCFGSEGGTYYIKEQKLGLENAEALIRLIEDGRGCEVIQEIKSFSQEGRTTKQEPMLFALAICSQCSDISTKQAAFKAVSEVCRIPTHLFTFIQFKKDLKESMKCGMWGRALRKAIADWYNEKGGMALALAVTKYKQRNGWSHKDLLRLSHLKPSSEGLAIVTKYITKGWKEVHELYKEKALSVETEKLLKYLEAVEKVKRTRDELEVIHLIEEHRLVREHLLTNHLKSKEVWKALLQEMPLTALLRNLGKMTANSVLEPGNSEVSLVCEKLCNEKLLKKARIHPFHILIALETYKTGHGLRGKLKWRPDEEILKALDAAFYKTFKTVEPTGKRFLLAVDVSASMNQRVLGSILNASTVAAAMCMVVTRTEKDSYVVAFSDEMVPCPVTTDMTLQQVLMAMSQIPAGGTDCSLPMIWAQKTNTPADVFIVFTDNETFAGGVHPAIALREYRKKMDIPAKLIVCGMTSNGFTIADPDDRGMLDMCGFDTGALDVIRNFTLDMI
The target of series [9] is recombinant Ro/SSA-like (SSA-56) protein, complete 485 aa open reading frame, His-tagged, expressed in E. coli (human) (UniProt Q6AZZ1). Described as above.
Series [10] deals with recombinant SSA-52 protein (human) (UniProt P19474). The description is as above.
UniProt P19474, sequence (P19474 whole entry): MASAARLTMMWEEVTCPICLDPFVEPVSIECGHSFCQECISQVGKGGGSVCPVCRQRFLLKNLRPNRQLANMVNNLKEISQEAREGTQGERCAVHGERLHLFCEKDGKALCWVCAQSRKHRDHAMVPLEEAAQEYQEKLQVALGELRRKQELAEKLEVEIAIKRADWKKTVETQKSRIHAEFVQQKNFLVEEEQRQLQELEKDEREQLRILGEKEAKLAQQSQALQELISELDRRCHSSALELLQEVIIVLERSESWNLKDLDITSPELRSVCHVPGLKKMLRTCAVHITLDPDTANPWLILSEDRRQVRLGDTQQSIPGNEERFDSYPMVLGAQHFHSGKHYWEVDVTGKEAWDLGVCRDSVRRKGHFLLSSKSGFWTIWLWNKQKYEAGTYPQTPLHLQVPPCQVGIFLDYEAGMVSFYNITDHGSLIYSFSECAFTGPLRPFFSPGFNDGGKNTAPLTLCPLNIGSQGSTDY
Series [11] deals with HIV Tat (HIV). Described as above.
In series [12] the target is recombinant SSB-48 protein (UniProt P05455). The series is described as above.
UniProt P05455, sequence (P05455 whole entry): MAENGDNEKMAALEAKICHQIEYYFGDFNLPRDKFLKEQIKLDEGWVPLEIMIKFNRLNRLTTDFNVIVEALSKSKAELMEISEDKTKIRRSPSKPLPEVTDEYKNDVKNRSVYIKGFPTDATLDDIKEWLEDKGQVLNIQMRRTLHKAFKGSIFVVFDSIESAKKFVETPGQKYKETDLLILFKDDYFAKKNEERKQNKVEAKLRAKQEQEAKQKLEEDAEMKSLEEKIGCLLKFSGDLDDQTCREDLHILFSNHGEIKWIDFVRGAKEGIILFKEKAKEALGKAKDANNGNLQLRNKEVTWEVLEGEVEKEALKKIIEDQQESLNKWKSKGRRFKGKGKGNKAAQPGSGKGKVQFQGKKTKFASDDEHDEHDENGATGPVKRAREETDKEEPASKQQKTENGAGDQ
Series [13] has as its target Helicase. The description is as above.
The target in series [14] is HIV Nef (HIV). Described as above.

For `CCCCOC(=O)[C@@H](CCC(N)=O)NC(=O)[C@H](C)NC(=O)[C@@H](C)O[C@H]1[C@H](O)[C@@H](CO)OC(O)[C@@H]1NC(C)=O` (some centres unmarked) [Murabutide], in [1], the “induction of chemokines known to be inhibitors of HIV replication” value is reported as “induces reproduction of chemokines”. The HIV replication entry in series [2] is “inhibits human immunodeficiency virus (HIV) replication”. In addition, in series [3] (in vivo), the inflammatory reactions result is “does not induce inflammatory reactions”. Moreover, the pyrogenicity entry in series [3] (unlike MDP and many other analogs) is reported as “not pyrogenic”. Also, the “inhibition of expression of the mRNA encoding Ro/SSA-like” value in series [4] (PBMCs from HIV+ patients after stimulation with murabutide) is recorded as “significant inhibition”; in series [4] (PBMCs from healthy controls, observed only in 3 cases out of 8), “inhibition is weaker”. The “inhibition of expression of the mRNA encoding Ro/SSA-like relative to untreated cells” value in series [4] (PBMCs from HIV+ patients, murabutide 10 μ/ml, 6 h or 24 h, 7 patients/10) is given as “more than 40%”. Moreover, the clinical tolerance result in series [5] is reported as “good clinical tolerance”. For the same compound, the “severe toxicity in clinical studies” value in [6] is recorded as “has not shown any severe toxicity”. Besides, in series [7], the “toxicity, number of live cells” value is “lack of toxicity”.
Control SP20: the Absorbance value at 1/100 was 0.068 absorbance in series [8]; 0.058 absorbance in [9]; 0.059 absorbance in series [10]; 0.068 absorbance in series [11]; 0.051 absorbance in [12]; 0.055 absorbance in [13]. Also, the Absorbance value at 1/100 in series [14] came to 0.056 absorbance.
